Data: patent publication US9358229B2, “JAK PI3K/mTOR combination therapy” (Novartis Pharma AG, priority 2011, dated 2016)
Where two headings read alike, the source gives them in different places.

Key:
[1] = test system: CD34+ cells of MF pts; experiment: Proliferation of CD34+ cells of MF patients; assay type: cell-based; conditions: Homo sapiens
Experimental: (§1) Mouse (Ba/F3 and Ba/F3-EPOR wild-type or expressing JAK2V617F(VF)) and human (JAK2VF mutated HEL and SET2) cell lines and primary MPN CD34+ cells from patients with myelofibrosis (MF) or polycythemia vera (PV) were used; BCR/ABL mutated K562 cells were used in some experiments. Cell proliferation, colony formation, apoptosis, cell cycle and protein phosphorylation status were evaluated. Effects of drug combination were analyzed according to Chou and Talalay to calculate the combination index (CI); a CI<1.0 indicates synergistic activity.
(§2) Then, the activity of RAD001 and Compound A was analyzed in primary cells from MPN patients.

[2] = test system: BaF3 JAK2V617F-luc+ cells; experiment: SCID BaF3 JAK2V617F-luciferase mouse model; assay type: in vivo; conditions: daily per os, 60 mpk Compound B, 45 mpk Compound A
Experimental: To ascertain the effects of drugs targeting PI3K/Akt/mTOR pathway alone and in combination with JAK2 inhibitor in a murine model of myeloproliferative neoplasms, a SCID BaF3 JAK2^V617F-luciferase mouse model was used. […] Female SCID mice (4-6 weeks of age; Harlan) were fed rodent standard chow and provided with water ad libitum. Mice were given 3×10^6 JAK2^V617F-luc+ cells by tail vein injection. Mice were injected with D-luciferin before imaging to detect a bioluminescence signal that is proportional to the clone burden. Baseline imaging was performed using a Photon Imager (Biospace Lab) apparatus to establish bioluminescence on day 6 after cell injection. […] Drugs treatment was administered daily per os (by mouth). Imaging was performed on day 7, 14, 21, and 28 after the first drug dose. Mice were followed daily for survival and humanely sacrificed when they developed hind limb paralysis or became moribund and considered deceased at the time at which they were sacrificed.

[3] = test system: JAK2 V617F Knock-in (KI) mouse; experiment: C57B16/J JAK2 V617F Knock-in (KI) mouse model; assay type: in vivo; conditions: KI mice treated for 5 days
Experimental: Mice were treated for 5 days, then blood, spleen and bone marrow cells were obtained for further analysis.

[4] = test system: JAK2V617F-mutated HEL cells; experiment: Cell proliferation and colony formation in HEL cells; assay type: cell-based; conditions: Homo sapiens
Experimental: as §1

[5] = test system: cell lines (Ba/F3, Ba/F3-EPOR, HEL, SET2); experiment: Apoptosis (Annexin-V) in cell lines; assay type: cell-based; conditions: at maximum / highest concentrations
Experimental: as §1

[6] = test system: BCR/ABL mutated K562 cells; experiment: Cell proliferation in K562 cells; assay type: cell-based; conditions: Homo sapiens
Experimental: as §1

[7] = test system: Ba/F3-EPOR JAK2 wild-type (wt) cells; experiment: Cell proliferation in Ba/F3-EPOR JAK2 wild-type cells; assay type: cell-based; conditions: Mus musculus, read-out: IC50, cell proliferation
Experimental: as §1

[8] = test system: CD34+ cells of healthy donors; experiment: Proliferation of CD34+ cells of healthy donors; assay type: cell-based; conditions: Homo sapiens
[9] = test system: JAK2V617F mutated patients cells; experiment: Single-colony genotyping in JAK2V617F mutated patients cells; assay type: cell-based, human; conditions: n=7
Experimental: as §2

[10] = test system: EPO-independent colonies (EEC) of PV patients cells; experiment: Erythropoietin-independent colony (EEC) assay; assay type: cell-based, human; conditions: for prevention of erythropoietin-independent colony (EEC) formation: primary cells from MPN patients
Experimental: as §1, §2

[11] = test system: JAK2V617F-mutated SET2 cells; experiment: Cell proliferation and colony formation in SET2 cells; assay type: cell-based; conditions: Homo sapiens, SET-2
[12] = test system: Ba/F3-EPOR JAK2V617F-mutated cells; experiment: Cell proliferation in Ba/F3-EPOR JAK2V617F-mutated cells; assay type: cell-based; conditions: Mus musculus, read-out: IC50, cell proliferation
Experimental: as §1

Cn1c(=O)n(-c2ccc(C(C)(C)C#N)cc2)c2c3cc(-c4cnc5ccccc5c4)ccc3ncc21 [Compound A, 2-methyl-2-[4-(3-methyl-2-oxo-8-quinolin-3-yl-2,3-dihydro-imidazo[4,5-c]quinolin-1-yl)-phenyl]-propionitrile]
IC50 [1]: 0.043 ± 0.02 µM | MEAN LIFESPAN [2]: 24 days | LIFESPAN INCREASE (%) VS VEHICLE [2]: 42% | median spleen index (ratio of spleen weight to body weight×100) [3]: 35 | reticulocyte count median [3]: 50 No. per HPF | IC50 [4]: 0.387 ± 0.09 µM | apoptosis / Annexin-V +ve cells [5]: 30-40% | IC50 [6]: 5 µM | IC50 [7]: 0.676 ± 0.2 µM | IC50 [8]: 0.78 ± 0.15 µM | reduction of VF in favor of wild-type colonies ([9]; mean): 40±16% | reduction of VF in favor of wild-type colonies, range ([9]; range): 18-71% | IC50 ([10]; Homo sapiens, PV patients cells, read-out: IC50, growth of EPO-independent colonies (EEC)): 0.02 ± 0.01 µM | prevention of erythropoietin-independent colony (EEC) formation [10]: low nM range | IC50 [11]: 0.334 ± 0.04 µM | IC50 [12]: 0.087 ± 0.05 µM

N#CC[C@H](C1CCCC1)n1cc(-c2ncnc3[nH]ccc23)cn1 [Compound B, (3R)-3-cyclopentyl-3-[4-(7H-pyrrolo[2,3-d]pyrimidin-4-yl)-1H-pyrazol-1-yl]propanenitrile]
MEAN LIFESPAN [2]: 19 days | LIFESPAN INCREASE (%) VS VEHICLE [2]: 19% | reticulocyte count median [3]: 44 No. per HPF

CO[C@H]1C[C@@H]2CC[C@@H](C)[C@@](O)(O2)C(=O)C(=O)N2CCCC[C@H]2C(=O)O[C@H]([C@H](C)C[C@@H]2CC[C@@H](OCCO)[C@H](OC)C2)CC(=O)[C@H](C)/C=C(\C)[C@@H](O)[C@@H](OC)C(=O)[C@H](C)C[C@H](C)/C=C/C=C/C=C/1C [RAD001, reference compound]
IC50 ([7]; Ba/F3-EPOR JAK2 wild-type cells): > 10 µM | prevention of erythropoietin-independent colony (EEC) formation [10]: low nM range | IC50 ([12]; Ba/F3-EPOR JAK2V617F-mutated cells): 0.615 ± 0.05 µM
